Experimental data from ChEMBL document CHEMBL1201862, “PubChem BioAssay data set” (2004).
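Method: 48-hour compound exposure of cells in 96-well plates, five concentrations, linear interpolation of endpoints. GI50 is the concentration that inhibits growth by half.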 Calls of active or inactive are those of the source. Cut-off read from the data, not from the text of the source: active = GI50 up to about 1.1 µM and inactive = higher.

How the values were obtained:
Assay in all cases: growth of human tumour cells (NCI), 48 h
[1] = system: 786-0
[2] = system: A498
[3] = system: A549
[4] = system: ACHN
[5] = system: BT-549
[6] = system: CAKI-1
[7] = system: CCRF-CEM
[8] = system: COLO 205
[9] = system: DU-145
[10] = system: EKVX
[11] = system: HCC 2998
[12] = system: HCT-116
[13] = system: HCT-15
[14] = system: HL-60
[15] = system: HOP-62
[16] = system: HOP-92
[17] = system: HT-29
[18] = system: Hs-578T
[19] = system: IGROV-1
[20] = system: K562
[21] = system: KM12
[22] = system: LOX IMVI
[23] = system: M14
[24] = system: MCF7
[25] = system: MDA-MB-231
[26] = system: MDA-MB-435
[27] = system: MDA-N
[28] = system: MOLT-4
[29] = system: Malme-3M
[30] = system: NCI-H226
[31] = system: NCI-H23
[32] = system: NCI-H460
[33] = system: NCI-H522
[34] = system: NCI/ADR-RES
[35] = system: OVCAR-3
[36] = system: OVCAR-4
[37] = system: OVCAR-5
[38] = system: OVCAR-8
[39] = system: PC-3
[40] = system: RPMI-8226
[41] = system: RXF 393
[42] = system: SF-268
[43] = system: SF-295
[44] = system: SF-539
[45] = system: SK-MEL-28
[46] = system: SK-MEL-2
[47] = system: SK-MEL-5
[48] = system: SK-OV-3
[49] = system: SN12C
[50] = system: SNB-19
[51] = system: SNB-75
[52] = system: SW-620
[53] = system: T47D
[54] = system: TK-10
[55] = system: U-251
[56] = system: UACC-257
[57] = system: UACC-62
[58] = system: UO-31

Compound: COc1cc(/C=C/c2ccccn2)cc(OC)c1OC
- GI50 [1]: > 10 µM (inactive)
- GI50 [2]: > 10 µM (inactive)
- GI50 [3]: > 10 µM (inactive)
- GI50 [4]: > 10 µM (inactive)
- GI50 [5]: > 10 µM (inactive)
- GI50 [6]: > 10 µM (inactive)
- GI50 [7]: > 10 µM (inactive)
- GI50 [8]: > 10 µM (inactive)
- GI50 [9]: > 10 µM (inactive)
- GI50 [10]: > 10 µM (inactive)
- GI50 [11]: > 10 µM (inactive)
- GI50 [12]: > 10 µM (inactive)
- GI50 [13]: > 10 µM
- GI50 [14]: > 10 µM (inactive)
- GI50 [15]: > 10 µM (inactive)
- GI50 [16]: > 10 µM (inactive)
- GI50 [17]: > 10 µM (inactive)
- GI50 [18]: > 10 µM (inactive)
- GI50 [19]: > 10 µM (inactive)
- GI50 [20]: > 10 µM (inactive)
- GI50 [21]: > 10 µM (inactive)
- GI50 [22]: > 10 µM (inactive)
- GI50 [23]: > 10 µM (inactive)
- GI50 [24]: > 10 µM (inactive)
- GI50 [25]: > 10 µM (inactive)
- GI50 [26]: > 10 µM (inactive)
- GI50 [27]: > 10 µM (inactive)
- GI50 [28]: > 10 µM (inactive)
- GI50 [29]: > 10 µM (inactive)
- GI50 [30]: > 10 µM (inactive)
- GI50 [31]: > 10 µM (inactive)
- GI50 [32]: > 10 µM (inactive)
- GI50 [33]: > 10 µM (inactive)
- GI50 [34]: > 10 µM (inactive)
- GI50 [35]: > 10 µM (inactive)
- GI50 [36]: > 10 µM (inactive)
- GI50 [37]: > 10 µM (inactive)
- GI50 [38]: > 10 µM (inactive)
- GI50 [39]: > 10 µM (inactive)
- GI50 [40]: > 10 µM (inactive)
- GI50 [41]: > 10 µM (inactive)
- GI50 [42]: > 10 µM (inactive)
- GI50 [43]: > 10 µM (inactive)
- GI50 [44]: > 10 µM (inactive)
- GI50 [45]: > 10 µM (inactive)
- GI50 [46]: > 10 µM (inactive)
- GI50 [47]: > 10 µM (inactive)
- GI50 [48]: > 10 µM (inactive)
- GI50 [49]: > 10 µM (inactive)
- GI50 [50]: > 10 µM (inactive)
- GI50 [51]: 7.78 µM (inactive)
- GI50 [52]: > 10 µM (inactive)
- GI50 [53]: > 10 µM (inactive)
- GI50 [54]: > 10 µM (inactive)
- GI50 [55]: > 10 µM (inactive)
- GI50 [56]: > 10 µM (inactive)
- GI50 [57]: > 10 µM (inactive)
- GI50 [58]: > 10 µM (inactive)
